# How the values were obtained:
# Assay in all cases: relative viability (nuclei count vs DMSO), 5 days (fraction); higher = more cells survive
# 201T = test system: 201T
# Method in brief: (§1)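 Values are medians from duplicate plates. Each reflects relative viability, defined as the nuclei count of treated wells over that of vehicle wells. Lung cancer cell lines in 1536-well plates were pin-tool dosed one day after seeding with one drug alone or with a fixed anchor-drug dose plus five library-drug doses (not always all listed) in √10 steps, then fixed, stained and imaged at 4× after 5 days.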
# COR-L 105 = test system: COR-L 105
# Method in brief: as §1
# COR-L23 = test system: COR-L23
# Method in brief: as §1
# EMC-BAC-2 = test system: EMC-BAC-2
# Method in brief: as §1
# HCC-15 = test system: HCC-15
# Method in brief: as §1
# HCC-366 = test system: HCC-366
# Method in brief: as §1
# LC-2-ad = test system: LC-2-ad
# Method in brief: as §1
# NCI-H1395 = test system: NCI-H1395
# Method in brief: as §1
# NCI-H1437 = test system: NCI-H1437
# Method in brief: as §1
# NCI-H1755 = test system: NCI-H1755
# Method in brief: as §1
# NCI-H1792 = test system: NCI-H1792
# Method in brief: as §1
# NCI-H1793 = test system: NCI-H1793
# Method in brief: as §1
# NCI-H1915 = test system: NCI-H1915
# Method in brief: as §1
# NCI-H2009 = test system: NCI-H2009
# Method in brief: as §1
# NCI-H2023 = test system: NCI-H2023
# Method in brief: as §1
# NCI-H2347 = test system: NCI-H2347
# Method in brief: as §1
# NCI-H23 = test system: NCI-H23
# Method in brief: as §1
# PC-14 = test system: PC-14
# Method in brief: as §1
# SK-MES-1 = test system: SK-MES-1
# Method in brief: as §1
smiles,measurement,setting,value
Cc1csc(=NC2CCCCC2)n1/N=C/c1ccc(O)c(O)c1O [MIM1] + CC1(C)CCC(c2ccc(Cl)cc2)=C(CN2CCN(c3ccc(C(=O)NS(=O)(=O)c4ccc(N[C@H](CCN5CCOCC5)CSc5ccccc5)c(S(=O)(=O)C(F)(F)F)c4)cc3)CC2)C1 [Navitoclax] (partner 0.5 µM),relative viability,201T; first compound 0.2 µM,1.2
same,relative viability,201T; first compound 0.6325 µM,1.21
same,relative viability,201T; first compound 2 µM,1.24
same,relative viability,201T; first compound 6.325 µM,1.19
same,relative viability,201T; first compound 20 µM,1.26
same,relative viability,COR-L 105; first compound 0.2 µM,0.78
same,relative viability,COR-L 105; first compound 0.6325 µM,0.8
same,relative viability,COR-L 105; first compound 2 µM,0.732
same,relative viability,COR-L 105; first compound 6.325 µM,0.628
same,relative viability,COR-L 105; first compound 20 µM,0.54
same,relative viability,COR-L23; first compound 0.2 µM,0.966
same,relative viability,COR-L23; first compound 0.6325 µM,1.08
same,relative viability,COR-L23; first compound 2 µM,0.997
same,relative viability,COR-L23; first compound 6.325 µM,0.774
same,relative viability,COR-L23; first compound 20 µM,0.515
same,relative viability,EMC-BAC-2; first compound 0.2 µM,1.11
same,relative viability,EMC-BAC-2; first compound 0.6325 µM,1.13
same,relative viability,EMC-BAC-2; first compound 2 µM,1.27
same,relative viability,EMC-BAC-2; first compound 6.325 µM,1.05
same,relative viability,EMC-BAC-2; first compound 20 µM,0.274
same,relative viability,HCC-15; first compound 0.2 µM,0.682
same,relative viability,HCC-15; first compound 0.6325 µM,0.693
same,relative viability,HCC-15; first compound 2 µM,0.689
same,relative viability,HCC-15; first compound 6.325 µM,0.42
same,relative viability,HCC-15; first compound 20 µM,0.382
same,relative viability,HCC-366; first compound 0.2 µM,1.06
same,relative viability,HCC-366; first compound 0.6325 µM,0.943
same,relative viability,HCC-366; first compound 2 µM,0.809
same,relative viability,HCC-366; first compound 6.325 µM,1
same,relative viability,HCC-366; first compound 20 µM,0.0645
same,relative viability,LC-2-ad; first compound 0.2 µM,0.491
same,relative viability,LC-2-ad; first compound 0.6325 µM,0.516
same,relative viability,LC-2-ad; first compound 2 µM,0.498
same,relative viability,LC-2-ad; first compound 6.325 µM,0.251
same,relative viability,LC-2-ad; first compound 20 µM,0.135
same,relative viability,NCI-H1395; first compound 0.2 µM,1.06
same,relative viability,NCI-H1395; first compound 0.6325 µM,1.1
same,relative viability,NCI-H1395; first compound 2 µM,1.63
same,relative viability,NCI-H1395; first compound 6.325 µM,0.646
same,relative viability,NCI-H1395; first compound 20 µM,0.425
same,relative viability,NCI-H1437; first compound 0.2 µM,0.989
same,relative viability,NCI-H1437; first compound 0.6325 µM,1.1
same,relative viability,NCI-H1437; first compound 2 µM,0.998
same,relative viability,NCI-H1437; first compound 6.325 µM,0.654
same,relative viability,NCI-H1437; first compound 20 µM,0.27
same,relative viability,NCI-H1755; first compound 0.2 µM,1.01
same,relative viability,NCI-H1755; first compound 0.6325 µM,0.995
same,relative viability,NCI-H1755; first compound 2 µM,1.03
same,relative viability,NCI-H1755; first compound 6.325 µM,0.703
same,relative viability,NCI-H1755; first compound 20 µM,0.557
same,relative viability,NCI-H1792; first compound 0.2 µM,0.59
same,relative viability,NCI-H1792; first compound 0.6325 µM,0.484
same,relative viability,NCI-H1792; first compound 2 µM,0.559
same,relative viability,NCI-H1792; first compound 6.325 µM,0.501
same,relative viability,NCI-H1792; first compound 20 µM,0.245
same,relative viability,NCI-H1793; first compound 0.2 µM,0.438
same,relative viability,NCI-H1793; first compound 0.6325 µM,0.546
same,relative viability,NCI-H1793; first compound 2 µM,0.436
same,relative viability,NCI-H1793; first compound 6.325 µM,0.475
same,relative viability,NCI-H1793; first compound 20 µM,0.47
same,relative viability,NCI-H1915; first compound 0.2 µM,0.791
same,relative viability,NCI-H1915; first compound 0.6325 µM,0.696
same,relative viability,NCI-H1915; first compound 2 µM,0.781
same,relative viability,NCI-H1915; first compound 6.325 µM,0.62
same,relative viability,NCI-H1915; first compound 20 µM,0.656
same,relative viability,NCI-H2009; first compound 0.2 µM,1.14
same,relative viability,NCI-H2009; first compound 0.6325 µM,1.19
same,relative viability,NCI-H2009; first compound 2 µM,1.22
same,relative viability,NCI-H2009; first compound 6.325 µM,0.999
same,relative viability,NCI-H2009; first compound 20 µM,0.826
same,relative viability,NCI-H2023; first compound 0.2 µM,0.992
same,relative viability,NCI-H2023; first compound 0.6325 µM,1.03
same,relative viability,NCI-H2023; first compound 2 µM,0.91
same,relative viability,NCI-H2023; first compound 6.325 µM,0.683
same,relative viability,NCI-H2023; first compound 20 µM,0.432
same,relative viability,NCI-H2347; first compound 0.2 µM,0.661
same,relative viability,NCI-H2347; first compound 0.6325 µM,0.776
same,relative viability,NCI-H2347; first compound 2 µM,0.812
same,relative viability,NCI-H2347; first compound 6.325 µM,0.544
same,relative viability,NCI-H2347; first compound 20 µM,0.408
same,relative viability,NCI-H23; first compound 0.2 µM,0.631
same,relative viability,NCI-H23; first compound 2 µM,0.632
same,relative viability,NCI-H23; first compound 6.325 µM,0.934
same,relative viability,NCI-H23; first compound 20 µM,0.242
same,relative viability,PC-14; first compound 0.2 µM,1.02
same,relative viability,PC-14; first compound 0.6325 µM,1.03
same,relative viability,PC-14; first compound 2 µM,0.988
same,relative viability,PC-14; first compound 6.325 µM,0.894
same,relative viability,PC-14; first compound 20 µM,0.133
same,relative viability,SK-MES-1; first compound 0.2 µM,1.29
same,relative viability,SK-MES-1; first compound 0.6325 µM,1.26
same,relative viability,SK-MES-1; first compound 2 µM,1.28
same,relative viability,SK-MES-1; first compound 6.325 µM,0.939
same,relative viability,SK-MES-1; first compound 20 µM,0.795

# Source: the supplement of paper PMC10307832
